In paper PMC7180948, “New Insights into 4-Anilinoquinazolines as Inhibitors of Cardiac Troponin I–Interacting Kinase (TNNi3K)” (Molecules, 2020):

Experiments:
Assay in all cases: biochemical
Set-up in all cases: KINOMEscan competition binding panel (Eurofins DiscoverX), single concentration, % inhibition
Details in all cases: read-out: 7 at 1 µM % inhibition
MAP4K5 = MAP4K5 (Homo sapiens, UniProt Q9Y4K4)
Procedure, shortened: (§1)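 KINOMEscan selectivity screen; >400 human kinases; compound at 1 µM, single concentration.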

EGFR(S752-I759del) = EGFR(S752-I759del) (Homo sapiens, UniProt P00533, DEL752-759)
EGFR(S752-I759del), sequence (P00533 with tags, fused parts or gaps DEL752-759): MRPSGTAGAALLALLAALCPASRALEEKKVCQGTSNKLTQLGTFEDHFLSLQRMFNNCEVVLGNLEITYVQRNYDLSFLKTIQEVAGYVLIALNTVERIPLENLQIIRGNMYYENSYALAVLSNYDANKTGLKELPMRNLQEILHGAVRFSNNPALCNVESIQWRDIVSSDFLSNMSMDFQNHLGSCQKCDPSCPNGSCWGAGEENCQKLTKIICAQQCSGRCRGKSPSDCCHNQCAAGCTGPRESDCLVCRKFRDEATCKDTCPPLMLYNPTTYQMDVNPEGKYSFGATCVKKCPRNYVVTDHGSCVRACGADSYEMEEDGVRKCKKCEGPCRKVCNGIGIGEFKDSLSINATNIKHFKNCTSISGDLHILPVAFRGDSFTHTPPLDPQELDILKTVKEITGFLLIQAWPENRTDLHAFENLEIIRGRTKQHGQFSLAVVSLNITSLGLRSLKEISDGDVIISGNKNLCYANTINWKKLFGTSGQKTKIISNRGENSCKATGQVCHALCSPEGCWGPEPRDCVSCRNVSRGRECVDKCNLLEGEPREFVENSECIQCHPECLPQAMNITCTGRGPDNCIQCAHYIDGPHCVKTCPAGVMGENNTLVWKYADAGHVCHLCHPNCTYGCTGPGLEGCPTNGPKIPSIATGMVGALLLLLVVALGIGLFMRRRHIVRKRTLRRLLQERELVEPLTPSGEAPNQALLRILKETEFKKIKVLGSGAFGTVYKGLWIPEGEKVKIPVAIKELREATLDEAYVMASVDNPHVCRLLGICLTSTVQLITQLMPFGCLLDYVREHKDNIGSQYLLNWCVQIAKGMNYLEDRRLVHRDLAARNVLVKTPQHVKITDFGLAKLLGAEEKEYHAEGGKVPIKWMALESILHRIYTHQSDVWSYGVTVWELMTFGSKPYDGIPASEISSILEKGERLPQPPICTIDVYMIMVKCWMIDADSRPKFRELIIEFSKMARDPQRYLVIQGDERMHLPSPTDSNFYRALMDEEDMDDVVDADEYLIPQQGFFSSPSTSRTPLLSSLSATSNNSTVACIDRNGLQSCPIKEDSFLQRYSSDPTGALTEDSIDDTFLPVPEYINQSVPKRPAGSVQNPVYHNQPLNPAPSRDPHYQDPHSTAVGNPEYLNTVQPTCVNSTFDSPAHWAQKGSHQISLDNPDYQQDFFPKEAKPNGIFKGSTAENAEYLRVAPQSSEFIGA
Procedure, shortened: as §1

PKN1 = PKN1 (Homo sapiens, UniProt Q16512)
Procedure, shortened: as §1

MTOR = MTOR (Homo sapiens, UniProt P42345)
Procedure, shortened: as §1

MST4 = biological target: T1, MST4 (Homo sapiens, UniProt Q9P289)
T1 construct: gene STK26
Procedure, shortened: as §1

ERK2 = biological target: T2, ERK2 (Homo sapiens, UniProt P28482)
T2 construct: gene MAPK1
Procedure, shortened: as §1

MET = MET (Homo sapiens, UniProt P08581)
Procedure, shortened: as §1

NDR2 = biological target: T3, NDR2 (Homo sapiens, UniProt Q9Y2H1)
T3 construct: gene STK38L
Procedure, shortened: as §1

PIK3CG = PIK3CG (Homo sapiens, UniProt P48736)
Procedure, shortened: as §1

KIT = KIT (Homo sapiens, UniProt P10721)
Procedure, shortened: as §1

[1] = biological target: T4, ABL1(H396P)-phosphorylated (Homo sapiens, UniProt P00519, H396P)
T4 construct: phosphorylated
Procedure, shortened: as §1

MAP4K2 = MAP4K2 (Homo sapiens, UniProt Q12851)
MAP4K2, sequence (Q12851 whole entry): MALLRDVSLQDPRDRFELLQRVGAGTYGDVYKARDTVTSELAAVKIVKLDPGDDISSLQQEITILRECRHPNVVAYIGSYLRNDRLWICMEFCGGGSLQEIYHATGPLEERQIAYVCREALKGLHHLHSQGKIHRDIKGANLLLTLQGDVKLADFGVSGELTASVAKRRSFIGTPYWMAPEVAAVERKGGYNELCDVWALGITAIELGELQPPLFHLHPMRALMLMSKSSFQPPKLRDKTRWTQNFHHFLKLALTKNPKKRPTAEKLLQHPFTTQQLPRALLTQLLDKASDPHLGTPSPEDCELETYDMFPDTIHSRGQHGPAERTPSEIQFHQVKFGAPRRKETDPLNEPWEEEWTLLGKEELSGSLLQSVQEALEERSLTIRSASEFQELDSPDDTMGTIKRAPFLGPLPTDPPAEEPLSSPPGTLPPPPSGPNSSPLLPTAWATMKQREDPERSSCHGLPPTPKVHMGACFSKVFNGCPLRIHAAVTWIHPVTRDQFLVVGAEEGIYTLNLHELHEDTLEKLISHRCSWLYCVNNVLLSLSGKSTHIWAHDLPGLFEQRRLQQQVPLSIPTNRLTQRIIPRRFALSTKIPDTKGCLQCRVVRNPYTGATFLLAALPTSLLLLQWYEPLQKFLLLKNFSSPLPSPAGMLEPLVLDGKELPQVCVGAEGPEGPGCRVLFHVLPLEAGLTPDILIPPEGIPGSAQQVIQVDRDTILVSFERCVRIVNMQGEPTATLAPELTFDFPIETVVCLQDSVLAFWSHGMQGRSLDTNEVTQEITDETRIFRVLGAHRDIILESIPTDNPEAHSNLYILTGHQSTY
Procedure, shortened: as §1

LIMK2 = LIMK2 (Homo sapiens, UniProt P53671)
Procedure, shortened: as §1

FES = FES (Homo sapiens, UniProt P07332)
Procedure, shortened: as §1

ITK = ITK (Homo sapiens, UniProt Q08881)
Procedure, shortened: as §1

NEK4 = NEK4 (Homo sapiens, UniProt P51957)
NEK4, sequence (P51957 whole entry): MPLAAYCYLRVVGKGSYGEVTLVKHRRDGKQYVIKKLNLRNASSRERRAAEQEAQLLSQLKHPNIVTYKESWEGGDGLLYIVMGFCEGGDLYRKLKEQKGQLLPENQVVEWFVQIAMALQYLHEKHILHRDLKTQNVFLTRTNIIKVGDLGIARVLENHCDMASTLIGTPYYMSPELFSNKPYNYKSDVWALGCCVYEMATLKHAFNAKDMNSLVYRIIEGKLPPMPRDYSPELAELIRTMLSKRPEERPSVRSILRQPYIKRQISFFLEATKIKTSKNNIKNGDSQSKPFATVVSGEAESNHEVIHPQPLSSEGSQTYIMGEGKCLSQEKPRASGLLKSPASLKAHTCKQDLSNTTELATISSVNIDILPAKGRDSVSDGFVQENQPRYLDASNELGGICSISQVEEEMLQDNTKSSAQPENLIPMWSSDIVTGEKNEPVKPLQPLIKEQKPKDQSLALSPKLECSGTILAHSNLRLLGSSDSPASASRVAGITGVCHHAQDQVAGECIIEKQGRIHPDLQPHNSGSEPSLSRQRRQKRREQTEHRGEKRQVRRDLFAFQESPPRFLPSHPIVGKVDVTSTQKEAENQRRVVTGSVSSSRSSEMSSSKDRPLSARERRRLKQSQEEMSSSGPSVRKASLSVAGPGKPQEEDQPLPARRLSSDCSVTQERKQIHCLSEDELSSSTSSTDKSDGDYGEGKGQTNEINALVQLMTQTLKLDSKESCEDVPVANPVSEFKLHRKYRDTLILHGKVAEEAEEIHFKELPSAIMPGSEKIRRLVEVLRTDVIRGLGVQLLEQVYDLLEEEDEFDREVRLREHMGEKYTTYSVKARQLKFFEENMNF
Procedure, shortened: as §1

MST3 = biological target: T5, MST3 (Homo sapiens, UniProt Q9Y6E0)
T5 construct: gene STK24
Procedure, shortened: as §1

CSNK1D = CSNK1D (Homo sapiens, UniProt P48730)
CSNK1D, sequence (P48730 whole entry): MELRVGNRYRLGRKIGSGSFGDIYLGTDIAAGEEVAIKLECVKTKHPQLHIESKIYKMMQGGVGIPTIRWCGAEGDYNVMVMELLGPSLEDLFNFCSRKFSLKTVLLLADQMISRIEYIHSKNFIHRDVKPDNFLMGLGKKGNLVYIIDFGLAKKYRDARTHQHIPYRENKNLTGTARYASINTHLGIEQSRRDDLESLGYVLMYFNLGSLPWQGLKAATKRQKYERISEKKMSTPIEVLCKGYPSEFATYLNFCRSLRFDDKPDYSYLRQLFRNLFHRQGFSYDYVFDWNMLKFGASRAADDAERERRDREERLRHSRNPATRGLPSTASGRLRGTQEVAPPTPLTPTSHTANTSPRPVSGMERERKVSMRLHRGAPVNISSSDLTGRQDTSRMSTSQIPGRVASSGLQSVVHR
Procedure, shortened: as §1

MYO3B = MYO3B (Homo sapiens, UniProt Q8WXR4)
MYO3B, sequence (Q8WXR4 whole entry): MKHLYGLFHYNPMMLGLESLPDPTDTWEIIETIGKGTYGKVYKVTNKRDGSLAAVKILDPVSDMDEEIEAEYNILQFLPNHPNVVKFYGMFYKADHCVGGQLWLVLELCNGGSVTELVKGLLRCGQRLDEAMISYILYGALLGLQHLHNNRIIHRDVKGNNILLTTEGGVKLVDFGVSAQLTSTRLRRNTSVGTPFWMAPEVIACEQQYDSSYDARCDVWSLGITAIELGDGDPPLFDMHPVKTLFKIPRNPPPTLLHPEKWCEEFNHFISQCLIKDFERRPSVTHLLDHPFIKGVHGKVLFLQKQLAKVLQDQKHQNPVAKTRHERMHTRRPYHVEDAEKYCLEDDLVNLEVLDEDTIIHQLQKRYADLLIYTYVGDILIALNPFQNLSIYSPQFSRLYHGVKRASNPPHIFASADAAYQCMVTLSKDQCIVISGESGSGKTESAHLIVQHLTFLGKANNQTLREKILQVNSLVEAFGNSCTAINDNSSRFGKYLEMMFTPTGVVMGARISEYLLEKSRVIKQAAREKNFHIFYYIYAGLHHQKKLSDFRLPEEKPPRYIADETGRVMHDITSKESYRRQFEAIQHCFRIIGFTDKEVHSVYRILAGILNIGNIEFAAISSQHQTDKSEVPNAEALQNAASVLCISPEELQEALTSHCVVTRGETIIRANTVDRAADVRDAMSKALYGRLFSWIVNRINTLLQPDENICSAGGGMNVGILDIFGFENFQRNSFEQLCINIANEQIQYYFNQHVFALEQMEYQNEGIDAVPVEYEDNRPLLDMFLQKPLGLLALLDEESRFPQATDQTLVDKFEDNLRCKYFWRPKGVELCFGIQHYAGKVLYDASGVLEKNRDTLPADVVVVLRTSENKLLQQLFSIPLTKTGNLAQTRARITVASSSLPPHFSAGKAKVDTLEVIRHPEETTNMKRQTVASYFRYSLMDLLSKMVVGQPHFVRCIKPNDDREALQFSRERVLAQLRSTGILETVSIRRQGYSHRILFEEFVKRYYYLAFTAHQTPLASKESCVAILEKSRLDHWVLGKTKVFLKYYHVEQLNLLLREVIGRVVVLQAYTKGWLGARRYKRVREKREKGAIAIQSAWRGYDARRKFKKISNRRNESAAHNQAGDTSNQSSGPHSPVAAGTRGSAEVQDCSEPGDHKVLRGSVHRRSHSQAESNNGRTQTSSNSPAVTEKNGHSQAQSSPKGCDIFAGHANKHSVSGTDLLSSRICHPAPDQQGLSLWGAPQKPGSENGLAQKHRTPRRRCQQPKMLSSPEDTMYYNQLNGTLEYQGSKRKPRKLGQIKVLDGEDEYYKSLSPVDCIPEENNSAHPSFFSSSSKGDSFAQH
Procedure, shortened: as §1

DYRK1A = DYRK1A (Homo sapiens, UniProt Q13627)
Procedure, shortened: as §1

NEK2 = NEK2 (Homo sapiens, UniProt P51955)
NEK2, sequence (P51955 whole entry): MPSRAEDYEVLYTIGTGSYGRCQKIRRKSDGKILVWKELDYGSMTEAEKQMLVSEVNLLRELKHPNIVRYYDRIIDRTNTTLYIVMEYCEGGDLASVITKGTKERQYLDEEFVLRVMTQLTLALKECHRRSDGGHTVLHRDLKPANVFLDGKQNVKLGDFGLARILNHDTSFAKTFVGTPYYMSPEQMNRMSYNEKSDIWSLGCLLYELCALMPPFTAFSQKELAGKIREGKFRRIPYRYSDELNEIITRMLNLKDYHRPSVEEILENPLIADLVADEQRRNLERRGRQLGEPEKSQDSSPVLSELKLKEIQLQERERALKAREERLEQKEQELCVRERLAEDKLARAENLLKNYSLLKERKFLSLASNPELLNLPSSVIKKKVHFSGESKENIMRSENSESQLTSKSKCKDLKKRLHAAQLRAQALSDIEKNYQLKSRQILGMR
Procedure, shortened: as §1

FLT3(R834Q) = FLT3(R834Q) (Homo sapiens, UniProt P36888, R834Q)
Procedure, shortened: as §1

FYN = FYN (Homo sapiens, UniProt P06241)
Procedure, shortened: as §1

YSK4 = biological target: T6, YSK4 (Homo sapiens, UniProt Q56UN5)
T6 construct: gene MAP3K19
Procedure, shortened: as §1

CNS(=O)(=O)c1ccc(N(C)C)c(Nc2ncnc3cc(OC)c(OC)cc23)c1 [compound 7, 3-((6,7-dimethoxyquinazolin-4-yl)amino)-4-(dimethylamino)-N-methylbenzenesulfonamide]
inhibition at 1 µM (MAP4K5): 0% | inhibition at 1 µM (EGFR(S752-I759del)): 29% | inhibition at 1 µM (PKN1): 0% | inhibition at 1 µM (MTOR): 0% | inhibition at 1 µM (MST4): 21% | inhibition at 1 µM (ERK2): 0% | inhibition at 1 µM (MET): 3% | inhibition at 1 µM (NDR2): 9% | inhibition at 1 µM (PIK3CG): 45% | inhibition at 1 µM (KIT): 13% | inhibition at 1 µM [1]: 34% | inhibition at 1 µM (MAP4K2): 41% | inhibition at 1 µM (LIMK2): 0% | inhibition at 1 µM (FES): 0% | inhibition at 1 µM (ITK): 0% | inhibition at 1 µM (NEK4): 12% | inhibition at 1 µM (MST3): 0% | inhibition at 1 µM (CSNK1D): 0% | inhibition at 1 µM (MYO3B): 0% | inhibition at 1 µM (DYRK1A): 0% | inhibition at 1 µM (NEK2): 2% | inhibition at 1 µM (FLT3(R834Q)): 31% | inhibition at 1 µM (FYN): 0% | inhibition at 1 µM (YSK4): 72%
